The text below walks through data of PubChem BioAssay AID330 (DTP/NCI, 2004).

The assay has as its system P388 leukemia ip, CD2F1 mice, survival T/C. The experiment in a line: NCI In Vivo Anticancer Drug Screen. Data for tumor model P388 Leukemia (intraperitoneal) in CD2F1 (CDF1) mice. Particulars: endpoint: median survival time, higher = longer survival. A digest of the protocol: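 Mice carrying the transplanted tumor received test compound or vehicle. Survival was recorded in each group, and the value is the treated-group measurement divided by that of the vehicle-treated control group.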

[1] abbreviates: dose: 6.25 mg/kg/injection, schedule: Q01DX009 (ip), vehicle: saline with Tween-80.
Where [2] appears, read: dose: 12.5 mg/kg/injection, schedule: Q01DX009 (ip), vehicle: saline with Tween-80.
[3] abbreviates: dose: 60.0 mg/kg/injection, schedule: Q01DX005 (ip), vehicle: saline with Tween-80.
Where [4] appears, read: dose: 120.0 mg/kg/injection, schedule: Q01DX005 (ip), vehicle: saline with Tween-80.
The mark [5] stands for this setting: dose: 240.0 mg/kg/injection, schedule: Q01DX005 (ip), vehicle: saline with Tween-80.
Setting [6] is: dose: 50.0 mg/kg/injection, schedule: Q01DX005 (ip), vehicle: Klucel (hydroxypropylcellulose) (HPC).
Setting [7] is: dose: 100.0 mg/kg/injection, schedule: Q01DX005 (ip), vehicle: Klucel (hydroxypropylcellulose) (HPC).
The mark [8] stands for this setting: dose: 200.0 mg/kg/injection, schedule: Q01DX005 (ip), vehicle: Klucel (hydroxypropylcellulose) (HPC).
Setting [9] is: dose: 50.0 mg/kg/injection, schedule: Q01DX009 (ip), vehicle: saline.
Where [10] appears, read: dose: 100.0 mg/kg/injection, schedule: Q01DX009 (ip), vehicle: saline.
Where [11] appears, read: dose: 200.0 mg/kg/injection, schedule: Q01DX009 (ip), vehicle: saline.
[12] abbreviates: dose: 50.0 mg/kg/injection, schedule: Q01DX009 (ip), vehicle: Klucel (hydroxypropylcellulose) (HPC).
The mark [13] stands for this setting: dose: 100.0 mg/kg/injection, schedule: Q01DX009 (ip), vehicle: Klucel (hydroxypropylcellulose) (HPC).
Where [14] appears, read: dose: 100.0 mg/kg/injection, schedule: Q04DX003 (ip), vehicle: saline.
Setting [15] is: dose: 200.0 mg/kg/injection, schedule: Q04DX003 (ip), vehicle: saline.
Setting [16] is: dose: 25.0 mg/kg/injection, schedule: Q01DX009 (ip), vehicle: Klucel (hydroxypropylcellulose) (HPC).

Values joined by “and” are separate entries in the source; they are usually repeats but may differ in a detail not shown here. Identical values can stand only once. Inconclusive results and toxic doses are left out.

With `CCN=C(N)Nc1ccc(NC(=O)c2ccc(C(=O)Nc3ccc(NC(N)=NCC)cc3)cc2)cc1`, the T/C by setting is: (dose: 3.13 mg/kg/injection, schedule: Q01DX009 (ip), vehicle: saline with Tween-80) 163 % of control; (dose: 3.13 mg/kg/injection, schedule: Q04DX003 (ip), vehicle: saline with Tween-80) 113 % of control; under setting [1], 168 % of control; (dose: 6.25 mg/kg/injection, schedule: Q04DX003 (ip), vehicle: saline with Tween-80) 122 % of control; under setting [2], 109 % of control and 113 % of control; (dose: 25.0 mg/kg/injection, schedule: Q04DX003 (ip), vehicle: saline with Tween-80) 200 % of control. Besides, under “dose: 50.0 mg/kg/injection, schedule: Q04DX003 (ip), vehicle: saline with Tween-80”, the T/C was 181 % of control.

With `c1ccc(-c2nc3ccccc3nc2-c2ccc(Sc3ccc(-c4nc5ccccc5nc4-c4ccccc4)cc3)cc2)cc1`, the T/C is 96 % of control under setting [1]; 93 % of control under setting [2]; 90 % of control (dose: 25.0 mg/kg/injection, schedule: Q01DX009 (ip), vehicle: saline with Tween-80).

Turning to `COC(=O)c1nc2[nH]n(-c3ccccc3)c(=O)c2c(C(=O)OC)c1C(C)C(=O)c1ccc(Cl)cc1` (configuration not stated), the T/C under setting [3] was 96 % of control, the T/C under setting [4] was 103 % of control and the T/C under setting [5] is 98 % of control.

As for `CCCCN(CCCC)CCNc1ccc(C)c2sc3ccc([N+](=O)[O-])cc3c(=O)c12`, the T/C is, setting by setting: under setting [6], 100 % of control; under setting [7], 99 % of control; under setting [8], 100 % of control.

As for `O=[N+]([O-])c1cc(I)c(O)c(/C=N/NS(=O)(=O)c2ccc(F)cc2)c1`, the T/C runs as follows: under setting [3], 104 % of control; under setting [4], 105 % of control; under setting [5], 101 % of control.

Take `COC(=O)NC1=CCC(C(C)(C)C)CC1` (configuration not stated): the T/C runs as follows: (dose: 25.0 mg/kg/injection, schedule: Q01DX005 (ip), vehicle: Klucel (hydroxypropylcellulose) (HPC)) 108 % of control; under setting [6], 113 % of control; under setting [7], 106 % of control; under setting [8], 103 % of control.

`COc1ccc(-c2cnc3[nH]c(=O)[nH]c(=O)c3n2)cc1`: the T/C is 100 % of control (dose: 100.0 mg/kg/injection, schedule: Q01DX001 (ip), vehicle: saline); 97 % of control (dose: 200.0 mg/kg/injection, schedule: Q01DX001 (ip), vehicle: saline); 90 % of control (dose: 400.0 mg/kg/injection, schedule: Q01DX001 (ip), vehicle: saline).

`N#CCCOCC(COCCC#N)OCCC#N`: the T/C under setting [9] is 105 % of control, the T/C under setting [10] is 92 % of control and the T/C under setting [11] is 102 % of control.

In the case of `Nc1nnc(-c2ccc[n+]([O-])c2)o1`, the T/C was 96 % of control under setting [3], 102 % of control under setting [4] and 105 % of control under setting [5].

`CCOP(=S)(Nc1ccc(F)cc1F)OCC`: the T/C reads like this: (dose: 100.0 mg/kg/injection, schedule: Q04DX002 (ip), vehicle: saline with Tween-80) 113 % of control; (dose: 200.0 mg/kg/injection, schedule: Q04DX002 (ip), vehicle: saline with Tween-80) 95 % of control.

In the case of `CC1CN2CC(C)O[Si](CC[Si]34OC(C)CN(CC(C)O3)CC(C)O4)(O1)OC(C)C2` (configuration not stated), the T/C by setting is: under setting [6], 108 % of control; under setting [7], 106 % of control; under setting [8], 105 % of control.

In the case of `NNc1ncnc2cccc(Cl)c12`, the T/C is 94 % of control under setting [3], 98 % of control under setting [4] and 92 % of control under setting [5].

Turning to `CC12CC3(C)CC(C)(C1)CC(Br)(C2)C3`, the T/C runs as follows: under setting [12], 100 % of control; under setting [13], 99 % of control; (dose: 200.0 mg/kg/injection, schedule: Q01DX009 (ip), vehicle: Klucel (hydroxypropylcellulose) (HPC)) 97 % of control.

As to `c1ncc2[nH]cnc2n1`, the T/C reads like this: (dose: 100.0 mg/kg/injection, schedule: Q01DX009 (ip), vehicle: saline sonified) 100 % of control; under setting [14], 104 % of control; (dose: 200.0 mg/kg/injection, schedule: Q01DX009 (ip), vehicle: saline sonified) 104 % of control; under setting [15], 104 % of control; (dose: 400.0 mg/kg/injection, schedule: Q01DX009 (ip), vehicle: saline sonified) 100 % of control; (dose: 400.0 mg/kg/injection, schedule: Q04DX003 (ip), vehicle: saline) 104 % of control.

In the case of `O=c1oc(-c2cc([N+](=O)[O-])cc([N+](=O)[O-])c2Cl)nc2ccccc12`, the T/C reads like this: (dose: 12.5 mg/kg/injection, schedule: Q01DX009 (ip), vehicle: Klucel (hydroxypropylcellulose) (HPC)) 103 % of control and 110 % of control; under setting [16], 105 % of control and 110 % of control; under setting [12], 103 % of control and 94 % of control; under setting [13], 105 % of control.

Take `Cc1c(Cl)cccc1NC(=O)/C(Cl)=C1/Sc2ccccc2NC1=O`: the T/C is 96 % of control under setting [3], 93 % of control under setting [4] and 91 % of control under setting [5].

With `COc1ccc(/C=C2/N=C(c3ccccc3)OC2=O)cc1`, the T/C is, setting by setting: under setting [3], 93 % of control; under setting [4], 93 % of control; under setting [5], 87 % of control.

`CC1(C)Cc2[nH]c3ccccc3c2C(C)(C)N1`: the T/C is, setting by setting: under setting [3], 105 % of control and 99 % of control; under setting [4], 100 % of control; under setting [5], 91 % of control.

As for `c1ccc2c(CNC3CCCCC3)c[nH]c2c1`, the T/C runs as follows: under setting [16], 109 % of control; under setting [12], 98 % of control; under setting [13], 96 % of control.

Take `CN(C)/N=C/C=C1\N=C(c2ccccc2)OC1=O`: the T/C by setting is: (dose: 50.0 mg/kg/injection, schedule: Q01DX005 (ip), vehicle: saline with Tween-80) 107 % of control; (dose: 100.0 mg/kg/injection, schedule: Q01DX005 (ip), vehicle: saline with Tween-80) 104 % of control; (dose: 200.0 mg/kg/injection, schedule: Q01DX005 (ip), vehicle: saline with Tween-80) 106 % of control.

For `c1ccc(CCNc2ncnc3nc[nH]c23)cc1`, the T/C is, setting by setting: (dose: 12.5 mg/kg/injection, schedule: Q01DX009 (ip), vehicle: other) 102 % of control; (dose: 25.0 mg/kg/injection, schedule: Q01DX009 (ip), vehicle: other) 101 % of control; (dose: 50.0 mg/kg/injection, schedule: Q01DX009 (ip), vehicle: other) 100 % of control; (dose: 100.0 mg/kg/injection, schedule: Q01DX009 (ip), vehicle: other) 101 % of control; (dose: 200.0 mg/kg/injection, schedule: Q01DX009 (ip), vehicle: other) 102 % of control.

For `CC(C(=O)O)c1cn(Cc2ccccc2)c2ccccc12` (configuration not stated), the T/C by setting is: under setting [3], 100 % of control; under setting [4], 102 % of control; under setting [5], 96 % of control.

In the case of `NC(=O)c1ccccc1NC(=O)c1ccccc1C(=O)O`, the T/C by setting is: (dose: 50.0 mg/kg/injection, schedule: Q01DX009 (ip), vehicle: saline with Tween-80) 100 % of control and 101 % of control; (dose: 100.0 mg/kg/injection, schedule: Q01DX009 (ip), vehicle: saline with Tween-80) 99 % of control and 103 % of control; (dose: 200.0 mg/kg/injection, schedule: Q01DX009 (ip), vehicle: saline with Tween-80) 101 % of control and 103 % of control; (dose: 400.0 mg/kg/injection, schedule: Q01DX009 (ip), vehicle: saline with Tween-80) 100 % of control and 101 % of control.

Regarding `C=C(C(=O)O)C(=O)O`, the T/C is, setting by setting: under setting [9], 105 % of control; (dose: 50.0 mg/kg/injection, schedule: Q04DX003 (ip), vehicle: saline) 115 % of control; under setting [10], 110 % of control; under setting [14], 105 % of control; under setting [15], 115 % of control.

`O=[N+]([O-])O.[Cu+2].[NH-]CC[NH-].[NH-]CC[NH-]`: the T/C is, setting by setting: (dose: 3.12 mg/kg/injection, schedule: Q01DX009 (ip), vehicle: saline) 100 % of control; (dose: 6.25 mg/kg/injection, schedule: Q01DX009 (ip), vehicle: saline) 100 % of control; (dose: 12.5 mg/kg/injection, schedule: Q01DX009 (ip), vehicle: saline) 100 % of control; (dose: 25.0 mg/kg/injection, schedule: Q01DX009 (ip), vehicle: saline) 92 % of control.

Take `CC1CN=C(NS(=O)(=O)c2ccccc2)N1` (configuration not stated): the T/C was 101 % of control under setting [9], 93 % of control under setting [10] and 92 % of control under setting [11].
